Experimental findings from patent US20140329914A1, “Amphiphilic Peptides for Thoracic Air Leakage Occlusion” (3-D Matrix Ltd., priority 2011, published 2014) are described below.

Data set [1] can be described thus: Blood biochemical examination. The format is in vivo, miniature swine (Gottingen). On the procedure:
Blood for biochemical examination was centrifuged at 3,000 rpm at 4° C. for 15 min to obtain serum samples used to measure AST, ALT, ALP, total protein (TP), albumin (Alb), protein fraction (alb), alpha 1 globulin (α1-glb), alpha 2 globulin (α-glb), beta globulin (β-glb), gamma globulin (γ-glb), albumin/globulin ratio (A/G), total bilirubin (T-Bil), urea nitrogen (UN), creatinine (CRE), glucose (Glu), total cholesterol (T-Cho), triglycerides (TG), sodium, potassium, chloride, calcium, inorganic phosphate (IP), and C-reactive protein (CRP).

Details of data set [2]: species or system miniature swine (Gottingen). The conditions noted are these: in vivo. On the procedure: Blood for hematological examination was collected by catheter on the day of operation, 3 days after operation, and 7 days after operation, and the day of necropsy. Blood was collected into EDTA-2K coated blood collection tubes (VP-DK052K05, TERUMO Ltd.). Red blood cell count (RBC), white blood cell count (WBC), hemoglobin concentration (HGB), hematocrit (HCT), and platelet count (PLT) were measured using a multi-channel blood cell counter (Sysmex K-4500, Sysmex

The conditions of data set [3]: in vivo. The protocol: All animals were weighed with a digital platform scale (DUE600ST/M3s-A, Mettler Toledo Ltd.) on the day of operation, 5 days post-operation, and the day of autopsy.
Food consumption was checked every day. Any remaining amount of food was weighed with a digital platform scale (DUE600ST/ID3s-A, Mettler Toledo Ltd.) when present. If there was no uneaten diet, food consumption was recorded as 500 g.

In turn, `CC(=O)N[C@@H](CCCNC(=N)N)C(=O)N[C@@H](C)C(=O)N[C@@H](CC(=O)O)C(=O)N[C@@H](C)C(=O)N[C@@H](CCCNC(=N)N)C(=O)N[C@@H](C)C(=O)N[C@@H](CC(=O)O)C(=O)N[C@@H](C)C(=O)N[C@@H](CCCNC(=N)N)C(=O)N[C@@H](C)C(=O)N[C@@H](CC(=O)O)C(=O)N[C@@H](C)C(=O)N[C@@H](CCCNC(=N)N)C(=O)N[C@@H](C)C(=O)N[C@@H](CC(=O)O)C(=O)N[C@@H](C)C(N)=O` [RADA16, Ac-(RADA)4-CONH2] gave a CRE in data set [1] (AD3: 3 days after treatment, per animal and Mean (n=3)) of 1.12 mg/dL. For the same compound, the “CRP change” value in data set [1] (in vivo) is “elevated level of CRP”. The “WBC change” value in data set [2] is “elevated level of WBC”. In data set [3], the “body weight and food intake” value was “generally maintained”; the general condition entry is listed as “good general condition”.
